Key:
APOL1 G1 Protein = biological target: T1, APOL1 G1 Protein (Homo sapiens, UniProt O14791, I384M/S342G); experiment: Trypanosoma brucei brucei Lysis Assay Using APOL1 Recombinant Protein (AlamarBlue viability); type: cell-based; conditions: read-out: Trypanosomal Assay (IC50)
T1 sequence (O14791 28-398 S342G/I384M): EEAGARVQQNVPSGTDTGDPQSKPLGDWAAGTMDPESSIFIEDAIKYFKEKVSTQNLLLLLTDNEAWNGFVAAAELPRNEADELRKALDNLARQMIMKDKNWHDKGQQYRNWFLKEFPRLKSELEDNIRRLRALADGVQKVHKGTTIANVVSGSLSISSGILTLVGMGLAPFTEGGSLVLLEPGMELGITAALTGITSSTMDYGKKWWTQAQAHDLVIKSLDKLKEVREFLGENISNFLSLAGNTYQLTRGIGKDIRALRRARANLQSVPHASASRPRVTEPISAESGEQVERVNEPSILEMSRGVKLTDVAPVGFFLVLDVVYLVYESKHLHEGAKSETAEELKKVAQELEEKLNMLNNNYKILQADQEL
How it was run: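 Lister 427 bloodstream-form trypanosomes seeded at 120,000 per well in phenol-red-free, serum-free medium and lysed with recombinant APOL1 variant protein. Viability read by AlamarBlue (resazurin) fluorescence. Percent viability relative to untreated wells, interpolated from a standard curve of seeded parasites.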

G1 APOL1 = biological target: T2, G1 APOL1 (Homo sapiens, UniProt O14791, I384M/S342G); experiment: Acute APOL1 Thallium Assay with Inducible Stable Clones of HEK 293 Cells; type: cell-based; conditions: HEK 293 inducible stable clones, G1 APOL1; read-out: Thallium Assay (IC50)
T2 construct: expressed in transfected cells
T2 sequence (O14791 28-398 S342G/I384M): T1 sequence (O14791 28-398 S342G/I384M)
How it was run: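 HEK293 T-Rex cells with a stable tetracycline-inducible G1 APOL1 construct (clone DC3.25) were induced with tetracycline at plating, 26000 cells per well, then incubated at 37° C. They were loaded with an AM-ester thallium-sensitive dye and stimulated with Tl+. The fluorescence rise measured Tl+ influx through APOL1 pores.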

Row | SMILES | IC50 (G1 APOL1) | IC50 (APOL1 G1 Protein)
1 | O=C(CCc1c(-c2ccc(F)cc2)[nH]c2c(F)cc(F)cc12)Nc1nnco1 [Compound 151] | > 1000 nM | > 1000 nM
2 | O=C(CCc1c(-c2ccc(F)cc2)[nH]c2c(F)cc(F)cc12)NCc1ncco1 [Compound 153] | > 1000 nM | > 1000 nM
3 | O=C(CCc1c(-c2ccc(F)cc2)[nH]c2c(F)cc(F)cc12)NC1(CCO)CC1 [Compound 154] | > 1000 nM | > 1000 nM
4 | O=C(CCc1c(-c2ccc(F)cc2)[nH]c2c(F)cc(F)cc12)NCc1cocn1 [Compound 155] | > 1000 nM | > 1000 nM
5 | COCCN(C)C(=O)CCc1c(-c2ccc(F)cc2)[nH]c2c(F)cc(F)cc12 [Compound 156] | > 1000 nM | > 1000 nM
6 | O=C(CCc1c(-c2ccc(F)cc2)[nH]c2c(F)cc(F)cc12)NC(c1ccco1)C(F)(F)F (centres unmarked) [Compound 157] | > 1000 nM | > 1000 nM
7 | CC(C)C[C@@H](CO)NC(=O)CCc1c(-c2ccc(F)cc2)[nH]c2c(F)cc(F)cc12 [Compound 158] | > 1000 nM | > 1000 nM
8 | O=C(CCc1c(-c2ccc(F)cc2)[nH]c2c(F)cc(F)cc12)Nc1ccon1 [Compound 160] | > 1000 nM | > 1000 nM
9 | O=C(CCc1c(-c2ccc(F)cc2)[nH]c2c(F)cc(F)cc12)NC1(C(F)(F)F)CCC1 [Compound 161] | > 1000 nM | > 1000 nM
10 | O=C(CCc1c(-c2ccc(F)cc2)[nH]c2c(F)cc(F)cc12)Nc1ncco1 [Compound 162] | > 1000 nM | > 1000 nM
11 | Cn1ccc(NC(=O)CCc2c(-c3ccc(F)cc3)[nH]c3c(F)cc(F)cc23)n1 [Compound 163] | > 1000 nM | > 1000 nM
12 | COCCNC(=O)CCc1c(-c2ccc(F)cc2)[nH]c2c(F)cc(F)cc12 [Compound 164] | > 1000 nM | > 1000 nM
13 | Cn1nnnc1NC(=O)CCc1c(-c2ccc(F)cc2)[nH]c2c(F)cc(F)cc12 [Compound 165] | > 1000 nM | > 1000 nM
14 | CN(CC(F)(F)F)C(=O)CCc1c(-c2ccc(F)cc2)[nH]c2c(F)cc(F)cc12 [Compound 166] | > 1000 nM | > 1000 nM
15 | O=C(CCc1c(-c2ccc(F)cc2)[nH]c2c(F)cc(F)cc12)Nc1nccs1 [Compound 167] | > 1000 nM | > 1000 nM
16 | O=C(CCc1c(-c2ccc(F)cc2)[nH]c2c(F)cc(F)cc12)NCc1cn(CC(F)(F)F)cn1 [Compound 168] | > 1000 nM | > 1000 nM
17 | O=C(CCc1c(-c2ccc(F)cc2)[nH]c2c(F)cc(F)cc12)NC1CCOC1 (centres unmarked) [Compound 169] | > 1000 nM | > 1000 nM
18 | O=C(CCc1c(-c2ccc(F)cc2)[nH]c2c(F)cc(F)cc12)Nc1cccc(=O)[nH]1 [Compound 170] | > 1000 nM | > 1000 nM
19 | O=C(CCc1c(-c2ccc(F)cc2)[nH]c2c(F)cc(F)cc12)Nc1nc(C(F)(F)F)co1 [Compound 171] | > 1000 nM | > 1000 nM
20 | Cc1cnc(NC(=O)CCc2c(-c3ccc(F)cc3)[nH]c3c(F)cc(F)cc23)o1 [Compound 172] | > 1000 nM | > 1000 nM
21 | CS(=O)(=O)CNC(=O)CCc1c(-c2ccc(F)cc2)[nH]c2c(F)cc(F)cc12 [Compound 173] | > 1000 nM | > 1000 nM
22 | O=C(CCc1c(-c2ccc(F)cc2)[nH]c2c(F)cc(F)cc12)Nc1cccnc1 [Compound 174] | > 1000 nM | > 1000 nM
23 | O=C(CCc1c(-c2ccc(F)cc2)[nH]c2c(F)cc(F)cc12)Nc1ccc[nH]c1=O [Compound 175] | > 1000 nM | > 1000 nM
24 | O=C(CCc1c(-c2ccc(F)cc2)[nH]c2c(F)cc(F)cc12)NCc1cnn(C2CC(F)(F)C2)c1 [Compound 176] | > 1000 nM | > 1000 nM
25 | Cc1ccc(CNC(=O)CCc2c(-c3ccc(F)cc3)[nH]c3c(F)cc(F)cc23)o1 [Compound 177] | > 1000 nM | > 1000 nM
26 | Cc1cnc(NC(=O)CCc2c(-c3ccc(F)cc3)[nH]c3c(F)cc(F)cc23)s1 [Compound 178] | > 1000 nM | > 1000 nM
27 | O=C(CCc1c(-c2ccc(F)cc2)[nH]c2c(F)cc(F)cc12)N[C@H]1CC[C@@H](O)C1 [Compound 179] | > 1000 nM | > 1000 nM

The next lines start with results.

Row | IC50 (G1 APOL1) | SMILES | IC50 (APOL1 G1 Protein)
28 | > 1000 nM | Cc1cc(NC(=O)CCc2c(-c3ccc(F)cc3)[nH]c3c(F)cc(F)cc23)no1 [Compound 180] | > 1000 nM
29 | > 1000 nM | O=C(CCc1c(-c2ccc(F)cc2)[nH]c2c(F)cc(F)cc12)N[C@H]1COC[C@@H]1O [Compound 181] | > 1000 nM
30 | > 1000 nM | CC(C)(NC(=O)CCc1c(-c2ccc(F)cc2)[nH]c2c(F)cc(F)cc12)C(F)(F)F [Compound 182] | > 1000 nM
31 | > 1000 nM | Cc1cccc(CNC(=O)CCc2c(-c3ccc(F)cc3)[nH]c3c(F)cc(F)cc23)n1 [Compound 183] | > 1000 nM
32 | > 1000 nM | O=C(CCc1c(-c2ccc(F)cc2)[nH]c2c(F)cc(F)cc12)Nc1ccno1 [Compound 184] | > 1000 nM
33 | > 1000 nM | O=C(CCc1c(-c2ccc(F)cc2)[nH]c2c(F)cc(F)cc12)NC(CO)c1ccccn1 (centres unmarked) [Compound 185] | > 1000 nM
34 | > 1000 nM | O=C(CCc1c(-c2ccc(F)cc2)[nH]c2c(F)cc(F)cc12)NCc1cnn(CC(F)(F)F)c1 [Compound 186] | > 1000 nM
35 | < 250 nM | O=C(CCc1c(-c2ccc(F)cc2)[nH]c2c(F)cc(F)cc12)N[C@H]1CCOC1=O [Compound 187] | < 250 nM
36 | < 250 nM | O=C(CCc1c(-c2ccc(F)cc2)[nH]c2c(F)cc(F)cc12)NC(CCO)C(=O)O (centres unmarked) [Compound 188] | 250 to 1000 nM
37 | > 1000 nM | O=C1CCC(NC(=O)CCc2c(-c3ccc(F)cc3)[nH]c3c(F)cc(F)cc23)C(=O)N1 (centres unmarked) [Compound 190] | > 1000 nM
38 | > 1000 nM | O=C(CCc1c(-c2ccc(F)cc2)[nH]c2c(F)cc(F)cc12)NCCC(=O)N1CC(O)C1 [Compound 191] | > 1000 nM
39 | > 1000 nM | CC(C)C[C@H](CO)NC(=O)CCc1c(-c2ccc(F)cc2)[nH]c2c(F)cc(F)cc12 [Compound 192] | > 1000 nM
40 | > 1000 nM | CC1(C)COC(=O)C1NC(=O)CCc1c(-c2ccc(F)cc2)[nH]c2c(F)cc(F)cc12 (centres unmarked) [Compound 193] | > 1000 nM
41 | < 250 nM | C[C@H](CO)NC(=O)CCc1c(-c2ccc(F)cc2)[nH]c2c(F)cc(Br)cc12 [Compound 227, 3-[5-bromo-7-fluoro-2-(4-fluorophenyl)-1H-indol-3-yl]-N-[(1R)-2-hydroxy-1-methyl-ethyl]propanamide] | < 250 nM
42 | > 1000 nM | O=C(CCc1c(-c2ccc(F)cc2)[nH]c2c(F)cc(Br)cc12)N[C@H](CO)C(F)(F)F [Compound 228] | > 1000 nM
43 | 250 to 1000 nM | O=C(CCc1c(-c2ccc(F)cc2)[nH]c2c(F)cc(Br)cc12)N[C@@H](CO)C(F)(F)F [Compound 229] | < 250 nM
44 | 250 to 1000 nM | O=C(CCc1c(-c2ccc(F)cc2)[nH]c2c(F)ccc(F)c12)N[C@@H](CO)C(F)(F)F [Compound 232, 3-[4,7-difluoro-2-(4-fluorophenyl)-1H-indol-3-yl]-N-[(1S)-2,2,2-trifluoro-1-(hydroxymethyl)ethyl]propanamide] | 250 to 1000 nM
45 | 250 to 1000 nM | O=C(CCc1c(-c2ccc(F)cc2)[nH]c2c(F)ccc(F)c12)N[C@H]1CCOC1=O [Compound 233, 3-[4,7-difluoro-2-(4-fluorophenyl)-1H-indol-3-yl]-N-[(3S)-2-oxotetrahydrofuran-3-yl]propanamide] | > 1000 nM
46 | < 250 nM | N#Cc1ccc(-c2[nH]c3c(F)cc(F)cc3c2CCC(=O)N[C@@H](CO)C(F)(F)F)cc1 [Compound 234, 3-[2-(4-cyanophenyl)-5,7-difluoro-1H-indol-3-yl]-N-[(1S)-2,2,2-trifluoro-1-(hydroxymethyl)ethyl]propanamide] | < 250 nM
47 | > 1000 nM | O=C(CCc1c(-c2ccccc2)[nH]c2ccc(F)cc12)NCCO [Compound 236] | > 1000 nM
48 | > 1000 nM | O=C(CCc1c(-c2ccc(F)cc2)[nH]c2ccccc12)NC1CC1 [Compound 238] | > 1000 nM
49 | < 250 nM | C[C@@H](CO)NC(=O)NCCc1c(-c2ccc(F)cc2)[nH]c2c(F)cc(F)cc12 [Compound 283] | < 250 nM
50 | 250 to 1000 nM | O=C(CCO)NCCc1c(-c2ccc(F)cc2)[nH]c2c(F)cc(F)cc12 [Compound 361] | 250 to 1000 nM
51 | < 250 nM | OCCc1c(-c2ccc(F)cc2)[nH]c2c(F)cc(F)cc12 [Compound 433, 2-[5,7-difluoro-2-(4-fluorophenyl)-1H-indol-3-yl]ethanol] | < 250 nM
52 | 250 to 1000 nM | NCCCc1c(-c2ccc(F)cc2)[nH]c2c(F)cc(F)cc12 [Compound 504, 3-[5,7-difluoro-2-(4-fluorophenyl)-1H-indol-3-yl]propan-1-amine] | < 250 nM
